Here are results for 1 substance from patent US6376649B1, “Methods for the synthesis of α- hydroxy-β-amino acid and amide derivatives” (Corvas International, Inc., priority 1998, dated 2002).

The target of the assay is thrombin (Homo sapiens, UniProt P00734). The assay is described as follows: standard in vitro assays of thrombin inhibitory activity and selectivity. The class given is biochemical. The following applies: standard in vitro assays designed to measure inhibitory activity and selectivity toward thrombin versus other proteases.

Consider “BnSO2-7Lac—G—R(.TFA)(CO))—Gly—OEt [16-5]”, for which the thrombin inhibitory activity result is listed as “thrombin inhibitory activity”.
